Results from PubChem BioAssay (NCI).
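Each compound was tested at five concentrations against cells in 96-well plates for 48 hours. GI50 marks 50% less growth. TGI: concentration producing complete growth inhibition.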

Assays:
Test in all cases: inhibition of tumour cell growth, NCI panel, 48 h
786-0 renal = tested on: 786-0 renal
A498 renal = tested on: A498 renal
A549 NSCLC = tested on: A549 NSCLC
ACHN renal = tested on: ACHN renal
BT-549 breast = tested on: BT-549 breast
CAKI-1 renal = tested on: CAKI-1 renal
CCRF-CEM leukemia = tested on: CCRF-CEM leukemia
COLO 205 colon = tested on: COLO 205 colon
DU-145 prostate = tested on: DU-145 prostate
EKVX NSCLC = tested on: EKVX NSCLC
HCC-2998 colon = tested on: HCC-2998 colon
HCT-116 colon = tested on: HCT-116 colon
HCT-15 colon = tested on: HCT-15 colon
HL-60(TB) leukemia = tested on: HL-60(TB) leukemia
HOP-62 NSCLC = tested on: HOP-62 NSCLC
HOP-92 NSCLC = tested on: HOP-92 NSCLC
HS 578T breast = tested on: HS 578T breast
HT29 colon = tested on: HT29 colon
IGROV1 ovarian = tested on: IGROV1 ovarian
K-562 leukemia = tested on: K-562 leukemia
KM12 colon = tested on: KM12 colon
LOX IMVI melanoma = tested on: LOX IMVI melanoma
M14 melanoma = tested on: M14 melanoma
MALME-3M melanoma = tested on: MALME-3M melanoma
MCF7 breast = tested on: MCF7 breast
MDA-MB-231 breast = tested on: MDA-MB-231 breast
MDA-MB-435 = tested on: MDA-MB-435
MOLT-4 leukemia = tested on: MOLT-4 leukemia
NCI-H226 lung = tested on: NCI-H226 lung
NCI-H460 lung = tested on: NCI-H460 lung
NCI-H522 lung = tested on: NCI-H522 lung
NCI/ADR-RES ovarian = tested on: NCI/ADR-RES ovarian
OVCAR-3 ovarian = tested on: OVCAR-3 ovarian
OVCAR-4 ovarian = tested on: OVCAR-4 ovarian
OVCAR-5 ovarian = tested on: OVCAR-5 ovarian
OVCAR-8 ovarian = tested on: OVCAR-8 ovarian
PC-3 prostate = tested on: PC-3 prostate
RPMI-8226 leukemia = tested on: RPMI-8226 leukemia
RXF 393 renal = tested on: RXF 393 renal
SF-268 CNS = tested on: SF-268 CNS
SF-295 CNS = tested on: SF-295 CNS
SF-539 CNS = tested on: SF-539 CNS
SK-MEL-2 melanoma = tested on: SK-MEL-2 melanoma
SK-MEL-28 melanoma = tested on: SK-MEL-28 melanoma
SK-MEL-5 melanoma = tested on: SK-MEL-5 melanoma
SK-OV-3 ovarian = tested on: SK-OV-3 ovarian
SN12C renal = tested on: SN12C renal
SNB-19 CNS = tested on: SNB-19 CNS
SNB-75 CNS = tested on: SNB-75 CNS
SR leukemia = tested on: SR leukemia
SW-620 colon = tested on: SW-620 colon
T-47D breast = tested on: T-47D breast
TK-10 renal = tested on: TK-10 renal
U251 CNS = tested on: U251 CNS
UACC-257 melanoma = tested on: UACC-257 melanoma
UACC-62 melanoma = tested on: UACC-62 melanoma
UO-31 renal = tested on: UO-31 renal

**Q.** What does the source list for `CS(=O)c1nccc(-c2c(-c3ccc(F)c(OCc4ccc(F)cc4)c3)nc3sccn23)n1` (centres undefined)?
**A.** GI50 (786-0 renal): > 100 µM; TGI (786-0 renal): > 100 µM; GI50 (A498 renal): > 100 µM; TGI (A498 renal): > 100 µM; GI50 (A549 NSCLC): > 100 µM; TGI (A549 NSCLC): > 100 µM; GI50 (ACHN renal): 16.9 µM; TGI (ACHN renal): > 100 µM; GI50 (BT-549 breast): > 100 µM; TGI (BT-549 breast): > 100 µM; GI50 (CAKI-1 renal): 18.4 µM; TGI (CAKI-1 renal): 76.6 µM; GI50 (CCRF-CEM leukemia): 15.8 µM; TGI (CCRF-CEM leukemia): > 100 µM; GI50 (COLO 205 colon): > 100 µM; TGI (COLO 205 colon): > 100 µM; GI50 (DU-145 prostate): 3.72 µM; TGI (DU-145 prostate): 13.2 µM; GI50 (EKVX NSCLC): 16.3 µM; TGI (EKVX NSCLC): 41.3 µM; GI50 (HCC-2998 colon): 10.2 µM; TGI (HCC-2998 colon): 23.6 µM; GI50 (HCT-116 colon): 5.08 µM; TGI (HCT-116 colon): 20.8 µM; GI50 (HCT-15 colon): 16.3 µM; TGI (HCT-15 colon): > 100 µM; GI50 (HL-60(TB) leukemia): 3.54 µM; TGI (HL-60(TB) leukemia): 13.7 µM; GI50 (HOP-62 NSCLC): 17.7 µM; TGI (HOP-62 NSCLC): 40.6 µM; GI50 (HOP-92 NSCLC): 5.76 µM; TGI (HOP-92 NSCLC): 43.9 µM; GI50 (HS 578T breast): 73.1 µM; TGI (HS 578T breast): > 100 µM; GI50 (HT29 colon): 22.3 µM; TGI (HT29 colon): > 100 µM; GI50 (IGROV1 ovarian): 4.14 µM; TGI (IGROV1 ovarian): 17.1 µM; GI50 (K-562 leukemia): 6.53 µM; TGI (K-562 leukemia): > 100 µM; GI50 (KM12 colon): 11.3 µM; TGI (KM12 colon): 31.6 µM; GI50 (LOX IMVI melanoma): 74.6 µM; TGI (LOX IMVI melanoma): > 100 µM; GI50 (M14 melanoma): 35.1 µM; TGI (M14 melanoma): > 100 µM; GI50 (MALME-3M melanoma): > 100 µM; TGI (MALME-3M melanoma): > 100 µM; GI50 (MCF7 breast): 2.18 µM; TGI (MCF7 breast): 5.39 µM; GI50 (MDA-MB-231 breast): 26.8 µM; TGI (MDA-MB-231 breast): > 100 µM; GI50 (MDA-MB-435): 47.8 µM; TGI (MDA-MB-435): > 100 µM; GI50 (MOLT-4 leukemia): 10.2 µM; TGI (MOLT-4 leukemia): 90.2 µM; GI50 (NCI-H226 lung): > 100 µM; TGI (NCI-H226 lung): > 100 µM; GI50 (NCI-H460 lung): 3.78 µM; TGI (NCI-H460 lung): 14.3 µM; GI50 (NCI-H522 lung): 60.6 µM; TGI (NCI-H522 lung): > 100 µM; GI50 (NCI/ADR-RES ovarian): > 100 µM; TGI (NCI/ADR-RES ovarian): > 100 µM; GI50 (OVCAR-3 ovarian): 2.84 µM; TGI (OVCAR-3 ovarian): 10.7 µM; GI50 (OVCAR-4 ovarian): 22.4 µM; TGI (OVCAR-4 ovarian): 74.1 µM; GI50 (OVCAR-5 ovarian): > 100 µM; TGI (OVCAR-5 ovarian): > 100 µM; GI50 (OVCAR-8 ovarian): 53.2 µM; TGI (OVCAR-8 ovarian): > 100 µM; GI50 (PC-3 prostate): 11.3 µM; TGI (PC-3 prostate): 34.1 µM; GI50 (RPMI-8226 leukemia): 6.55 µM; TGI (RPMI-8226 leukemia): 43.8 µM; GI50 (RXF 393 renal): 16.5 µM; TGI (RXF 393 renal): 63.8 µM; GI50 (SF-268 CNS): 19.5 µM; TGI (SF-268 CNS): 57.6 µM; GI50 (SF-295 CNS): > 100 µM; TGI (SF-295 CNS): > 100 µM; GI50 (SF-539 CNS): > 100 µM; TGI (SF-539 CNS): > 100 µM; GI50 (SK-MEL-2 melanoma): 71.8 µM; TGI (SK-MEL-2 melanoma): > 100 µM; GI50 (SK-MEL-28 melanoma): 6.6 µM; TGI (SK-MEL-28 melanoma): 21.5 µM; GI50 (SK-MEL-5 melanoma): 44 µM; TGI (SK-MEL-5 melanoma): > 100 µM; GI50 (SK-OV-3 ovarian): > 100 µM; TGI (SK-OV-3 ovarian): > 100 µM; GI50 (SN12C renal): > 100 µM; TGI (SN12C renal): > 100 µM; GI50 (SNB-19 CNS): 14.9 µM; TGI (SNB-19 CNS): 38.6 µM; GI50 (SNB-75 CNS): > 100 µM; TGI (SNB-75 CNS): > 100 µM; GI50 (SR leukemia): 17.1 µM; TGI (SR leukemia): > 100 µM; GI50 (SW-620 colon): 27 µM; TGI (SW-620 colon): > 100 µM; GI50 (T-47D breast): 2.64 µM; TGI (T-47D breast): 7 µM; GI50 (TK-10 renal): > 100 µM; TGI (TK-10 renal): > 100 µM; GI50 (U251 CNS): > 100 µM; TGI (U251 CNS): > 100 µM; GI50 (UACC-257 melanoma): 15 µM; TGI (UACC-257 melanoma): 36.5 µM; GI50 (UACC-62 melanoma): 32.1 µM; TGI (UACC-62 melanoma): > 100 µM; GI50 (UO-31 renal): > 100 µM; TGI (UO-31 renal): > 100 µM
